The subject of assay [1] is Southern Corn Rootworm Adults. Kind of assay: Field trial, stomach poison test. It is filed as in vivo. Set-up: key: mortality rating on a 0 to 9 scale. As for the experimental part: (§1) Leaves from the infested plant are treated with different concentrations of the test compounds, either by spraying with a DeVilbiss Special Atomizer (5004) at 10 psi or by dipping the leaves in solutions containing the compound. The leaves are then allowed to air dry.
(§2) After the leaves have dryed, they are placed in plastic petri dishes (100 × 25 mm), then the insects are counted out into each dish, five or ten insects per dish depending on the number of insects available. There are one or two replicates and usually two or three rates with each compound. Mortality results are taken at 24, 48 and 72 hours. The rating scale is 0 to 9.
(§3) Using the above methods, field trials were carried out against species of 5 orders of insects. The results, which are summarized in the following tables, give the average mortality for the particular insect with a given benzimidazole for each concentration employed. […] These tables contain all results obtained during the summer trials.

Assay [2] deals with Southern Corn Rootworm Adults. Put plainly: Field trial, contact poison test. It is filed as in vivo.
Excerpt: (§4) Infested plants are placed in 6 oz. prescription bottles filled with water to keep them from wilting. Cellucotton is wrapped around the plant stem and squeezed into the bottle neck to prevent the insects from drowning.
(§5) A DeVilbiss Special Atomizer (5004) is used at 10 psi to spray the test plant with different concentrations of compounds. The atomizer is held at arm's length to prevent blowing the insects off the host plant. After treating, the bottles are placed on a table covered with brown wrapping paper to catch the dead insects as they drop from the plant. The plants are spaced so the leaves or plants are not touching one another.
(§6) The results are read at 24, 48, and 72 hours when applicable. The rating scale is 0 to 9 where 0 = 0-10 percent and 9 = 91-100 percent mortality.
as §3

For a further assay, the system named is Yellow Mealworm Larvae. Put plainly: Field trial, topical application. It is filed as in vivo. Set-up: key: 0 = 0-10% mortality, 9 = 91-100% mortality (0-9 scale). The procedure: as §6
In a variation of the above test, 1 microliter of a test solution containing a predetermined number of micrograms of benzimidazole was applied directly to larvae or adult insects.
as §3

Assay [3] concerns House Fly. Kind of assay: Housefly (Contact) Test. It is filed as in vivo, Musca domestica (Diptera). The note with it: 24 h. The procedure: Rearing cages containing four-day old adult house flies are chilled at 35°-40° F. for about 1 hour. One hundred flies are transferred from the rearing cage to each test cage using a small scoop. The caged flies are kept for 1-2 hours at 70°-80° F. The cages are sprayed in the same manner as described for the milkweed bug with 5 ml. of the test formulation. Two unsprayed cages are held as controls and two cages are sprayed with a 50 ppm DDT formulation as a reference standard. Mortality counts are made 24 hours after spraying. […] The same rating scale is employed as heretofore.

Another assay has as its system Two-spotted Spider Mite. Put plainly: Two-spotted Spider Mite test. It is filed as in vivo, Tetranychus urticae (Acarina). The conditions noted are these: 48 h. The procedure: The procedure in this test is the same as that in the previous aphid test, except that about 100 two-spotted spider mites from a stock colony raised on squash plants are transferred to a cut squash cotyledon. The mortality is estimated 48 hours after spraying. The same rating scale is used.

A further assay has as its system Oriental Cockroach. Put plainly: Oriental Roach Test. The conditions noted are these: 24 h. It is filed as in vivo, Blatta orientalis (Orthoptera). The procedure:
A rearing pan of late instar (3-4 months old) roaches is placed in a cold room for about 1 hour. Ten nymphs are taken from the pan and placed in each cage and the caged insects are kept at 70°-80° F. for 1 hour. The test cages are then sprayed in the manner indicated above in the milkweed bug test using 5 ml. of a formulation containing a specified amount of the insecticide. The test cages are held for 72 hours during which time the cockroaches are neither fed nor watered. Controls consist of 2 unsprayed cages, two cages sprayed with the formulation alone and 2 cages with a formulation containing 1000 ppm of heptachlor. Mortality counts are made 24 hours after spraying by shaking the cages lightly. All cockroaches remaining in the bottom are counted as dead.

The subject of another assay is Milkweed Bug. Kind of assay: Milkweed Bug Test. It is filed as in vivo, Oncopeltis fasciatus (Hemiptera). The conditions noted are these: 48 h. As for the experimental part:
Ten adult milkweed bugs are chilled and placed in a test cage. The cages containing the bugs are sprayed with 5 ml. of a test formulation containing a pre-determined amount of the insecticide, using a DeVilbiss atomizer at 10 psi held 33 inches from the top of the cage. After the cage has been allowed to dry, the bugs are fed and watered for 48 hours. A formulation containing 500 ppm of malathion is used as a reference standard and two unsprayed cages are kept as controls. Mortality counts are made 48 hours after spraying. Moribund adults are considered dead. The same rating scale is employed as before.

The test system of the next assay is Mexican Bean Beetle. Kind of assay: Mexican Bean Beetle Test. It is filed as in vivo, Epilachna varivestis (Coleoptera). The conditions noted are these: 48 h. The procedure:
Cuttings of four six-day old Bountiful snap bean plants containing two leaves with approximately 5 square inches of leaf surface, are placed in water. The leaves are sprayed to wetting with about 5-10 ml. of a formulation containing a pre-determined level of the test compound. Half of the formulation is sprayed on the top surface and half on the bottom surface of the leaf using a DeVilbiss atomizer at 10 psi held at a distance of about 18 inches from the leaf. After the leaves have dried, they are cut from the stem and placed separately in petri dishes. Ten third instar, nonmolting Mexican bean beetle larvae grown on Bountiful snap beans are placed on each leaf. Controls consist of two leaves sprayed with 5 ml. of a 500 ppm malathion formulation (reference standard), two leaves sprayed with the formulation without the active ingredient and two leaves are held as untreated controls. After 48 hours, a mortality count is made and the amount of feeding noted. Moribund larvae are counted as dead.

Assay [4] concerns House Fly. Put plainly: Housefly (Stomach) Test. It is filed as in vivo, Musca domestica (Diptera). The note with it: 24 h. As for the experimental part: Ten chilled house flies are taken from the rearing cage and placed in a covered petri dish. Sugar cubes treated with 0.2 ml. of a formulation containing a specified level of the insecticide are placed in the petri dish one hour after the flies have been removed from the chill room. Controls consist of sugar cubes treated with 0.2 ml. of deionized water and cubes treated with 0.2 ml. of a formulation containing 500 ppm of malathion. Mortality counts are made 24 hours later. The same rating scale is used as before.

In the next assay the test system is Boll Weevil. Put plainly: Boll Weevil Test. It is filed as in vivo, Anthonomus grandis (Coleoptera). The note with it: 48 h. The source says: The procedure is identical to that employed for the Mexican bean beetle and the Southern armyworm, except that 10 adult boll weevils are placed on cotton leaves that have been dipped into formulations of the test compounds. The same rating scale is used.

Another assay deals with Meadow Spittlebug. Put plainly: Field trial, stomach poison test. It is filed as in vivo. The procedure:
as §1, §2, §3

The test system of a further assay is Squash Bug Adults. Put plainly: Field trial, contact poison test. It is filed as in vivo. Set-up: key: 0-9 rating: 0 = 0-10% mortality, 9 = 91-100% mortality.
Excerpt: as §4, §5, §6, §3

Assay [5] concerns Unidentified Green Leafhopper. Kind of assay: Field trial, stomach poison test. Set-up: key: mortality rating on a 0 to 9 scale. It is filed as in vivo. As for the experimental part:
as §1, §2, §3

In assay [6] the test system is Tarnished Plant Bug Adults. Kind of assay: Field trial, stomach poison test. Set-up: key: mortality rating on a 0 to 9 scale. It is filed as in vivo. The procedure: as §1, §2, §3
For another assay, the system named is Melon Aphid. Put plainly: Melon Aphid Test. It is filed as in vivo, Aphis gossypii (Hemiptera). The note with it: 250 ppm, 24 h. From the text: Four blue hubbard squash seeds are planted per container in vermiculite and the containers watered from the bottom. After 6 days, the two weakest plants are cut off and one cotyledon and the primary leaves are removed from each of the two remaining plants. The remaining cotyledon is infested with 100 melon aphids from a stock colony by pinning the cotyledon against an aphid-infested squash cotyledon from the colony and allowing the aphids to transfer. After transfer, the colony leaf is removed. Forty-eight hours later, the infested leaves are sprayed to wetting with formulations containing graded amounts of the insecticide using a DeVilbiss atomizer at 10 psi held at 12-15 inches from the plant. Controls consist of two infested, unsprayed squash plants and two infested plants sprayed to wetting with a formulation containing 100 ppm malathion as a reference standard. The mortality is estimated 24 hours after spraying by observation using a 10 power dissecting microscope. The same rating scale is used as before.

Here are results for eight compounds from patent US4122184A, “Benzimidazole insecticides” (priority 1977, dated 1978).

For “mixture of 7-nitro-1-piperidinothionocarbonyl-2,5-bis(trifluoromethyl)benzimidazole and 4-nitro-1-piperidinothionocarbonyl-2,6-bis(trifluoromethyl)benzimidazole”, the average mortality rating is listed as 1 in assay [1] (25 ppm); 7 in assay [1] (50 ppm); 3 in assay [1] (100 ppm); 0 (0-10 percent) in assay [2] (25 ppm); 9 (91-100 percent mortality) in [2] (50 ppm); 9 (91-100 percent mortality) in [2] (100 ppm). Further, the average mortality rating with Yellow Mealworm Larvae (0.03 μg/μl), in the assay on Yellow Mealworm Larvae (0.07 μg/μl) and in the assay with Yellow Mealworm Larvae (0.15 μg/μl) was 3 each time.
As for `Clc1ccc(C(c2ccc(Cl)cc2)C(Cl)(Cl)Cl)cc1` [DDT, reference compound], the mortality rating in the assay with House Fly [3] (50 ppm) is given as 6-8.
In the case of `CC(COc1ccc(C(C)(C)C)cc1)OS(=O)OCCCl` (stereo not drawn) [Aramite, reference compound], the mortality rating with Two-spotted Spider Mite (50 ppm) was 7-9.
Take `ClC1=C(Cl)C2(Cl)C3C(Cl)C=CC3C1(Cl)C2(Cl)Cl` (stereo not drawn) [Heptachlor, reference compound]: the mortality rating in the assay on Oriental Cockroach (1000 ppm) is 8-9.
For `CCOC(=O)CC(SP(=S)(OC)OC)C(=O)OCC` (stereo not drawn) [Malathion, reference compound], the mortality rating is recorded as 7-8 in the assay on Milkweed Bug (500 ppm), 7- 8 in the assay on Mexican Bean Beetle (500 ppm), 6-7 with House Fly [4] (500 ppm) and 7-8 with Boll Weevil (500 ppm).
In the case of “mixture of N-ethyl-4-nitro-2,6-bis(trifluoromethyl)thio-1-benzimidazolecarboxanilide and N-ethyl-nitro-2,5-bis(trifluoromethyl)thio-1-benzimidazolecarboxanilide”, the mortality rating is 1 (11-20) in the assay on Milkweed Bug (1000 ppm); 5 (51-60) in the assay with Two-spotted Spider Mite (1000 ppm); 1.5 in the assay with Mexican Bean Beetle (10 ppm); 6 (61-70) with Mexican Bean Beetle (25 ppm); 5.5 in the assay with Mexican Bean Beetle (50 ppm); 6.5 with Mexican Bean Beetle (100 ppm). In addition, the mortality rating is on record as 9 (91-100) with Mexican Bean Beetle (250 ppm); 9 (91-100) in the assay on Mexican Bean Beetle (500 ppm); 9 (91-100) with Mexican Bean Beetle (1000 ppm); 1 (11-20) in the assay with House Fly [4] (1000 ppm); 0 (0-10) in the assay with Boll Weevil (10 ppm); 6.5 in the assay on Boll Weevil (25 ppm). Besides, the mortality rating was 7.5 in the assay on Boll Weevil (50 ppm); 8 (81-90) in the assay on Boll Weevil (100 ppm); 8.5 in the assay with Boll Weevil (250 ppm); 9 (91-100) in the assay with Boll Weevil (500 ppm); 9 (91-100) in the assay on Boll Weevil (1000 ppm); 6.5 in the assay with House Fly [3] (10 ppm). Besides, the mortality rating in the assay on House Fly [3] (25 ppm) is on record as 8.5; with House Fly [3] (50 ppm), 8 (81-90); in the assay on House Fly [3] (100 ppm), 8 (81-90); in the assay with House Fly [3] (250 ppm) it was 9 (91-100); in the assay with House Fly [3] (500 ppm) it was 9 (91-100); with House Fly [3] (1000 ppm), 7 (71-80). For the same compound, the mortality rating in the assay on Oriental Cockroach (1000 ppm) is recorded as 0 (0-10).
Regarding `O=C(Oc1ccc([N+](=O)[O-])cc1)n1c(C(F)(F)F)nc2c([N+](=O)[O-])cc(C(F)(F)F)cc21` [N, p-nitrophenyl-4-nitro-2,6-bis(trifluoromethyl)-1-benzimidazolecarboxylate], the mortality rating with Two-spotted Spider Mite (1 ppm) is reported as 2.5; in the assay with Two-spotted Spider Mite (5 ppm) it was 1.5; in the assay on Two-spotted Spider Mite (500 ppm) it was 8.5; with Boll Weevil (10 ppm), 1.5; in the assay with Boll Weevil (25 ppm) it was 3.5; in the assay on Melon Aphid, 7.5. Also, the mortality rating with Oriental Cockroach (500 ppm) stood at 4.5; in the assay with Oriental Cockroach (1000 ppm), 5.5. Moreover, the average mortality rating with Meadow Spittlebug (10 ppm) is listed as 1; in the assay on Meadow Spittlebug (25 ppm), 1; in the assay on Meadow Spittlebug (50 ppm), 0 (0-10 percent); in the assay on Squash Bug Adults (125 ppm) it was 1; with Squash Bug Adults (250 ppm), 6; with Squash Bug Adults (500 ppm), 5. Further, the average mortality rating with Squash Bug Adults (750 ppm) is reported as 8; in assay [5] (10 ppm) it was 0 (0-10 percent); in assay [5] (25 ppm), 1; in assay [5] (50 ppm) it was 3; in assay [6] (10 ppm) it was 3; in assay [6] (25 ppm), 3. The average mortality rating is given as 3 in assay [6] (50 ppm); 0 (0-10 percent) in assay [2] (25 ppm); 5 in assay [2] (50 ppm); 3 in [2] (100 ppm); 1 in the assay with Yellow Mealworm Larvae (0.03 μg/μl); 3 with Yellow Mealworm Larvae (0.07 μg/μl). Further, the average mortality rating in the assay with Yellow Mealworm Larvae (0.15 μg/μl) is on record as 7.
`CCOC(=O)n1c(C(F)(F)F)nc2c([N+](=O)[O-])cc(C(F)(F)F)cc21` [G, ethyl 2,6-bis(trifluoromethyl)-4-nitro-1-benzimidazolecarboxylate]: in the assay with Oriental Cockroach (1000 ppm), the mortality rating is recorded as 5.5.
